These are literature values, as cited in patent publication US8071772B2, “Spirolactam bicyclic CGRP receptor antagonists” (Merck Sharp & Dohme Corp., priority 2005, dated 2011).

Data set [1] deals with facial blood flow. As to conditions: marmoset; Doods et al. 2000.
For data set [2], the system named is diameter of the middle meningeal artery. As to conditions: rat, prior administration; Williamson et al. 1997.
The subject of data set [3] is facial blood flow. The note with it: rat; Escott et al. 1995.

No end group written: not given here.

Regarding `NCCCC[C@H](NC(=O)[C@@H](Cc1cc(Br)c(O)c(Br)c1)NC(=O)N1CCC(N2Cc3ccccc3NC2=O)CC1)C(=O)N1CCN(c2ccncc2)CC1` [BIBN4096BS], the “effect on increase in facial blood flow” value in the data set with facial blood flow [1] is listed as “blocked”.
For the compound “CGRP(8-37): a peptide CGRP antagonist; fragment of CGRP that lacks seven N-terminal amino acid residues (VTHRLAGLLSRSGGVVKNNFVPTNVGSKAF; ends and bridges not checked; UniProt P06881 90-119, looked up, fragment)”, in data set [2], the “effect on increase of middle meningeal artery diameter” value is listed as “blocked”. Also, the “effect on increased facial blood flow” value in the data set with facial blood flow [3] is recorded as “inhibited”.
